Assay results taken from US8242166B2, “C(10) ethyl ester and C(10) cyclopropyl ester substituted taxanes” (Florida State University Research Foundation, Inc., priority 2008, dated 2012).
Like-named read-outs stand apart in the source and are kept apart here.

Columns and labels:
[1] = test system: HT29 human tumor xenografts; experiment: HT29 xenograft study e212, oral and i.v. (Example 26); details: every four day schedule for four doses
From the text: (§1) The formulation for oral studies was an ethanol and Cremophor formulation while the formulation for compound 18365 and compound 19244 dosed i.v. was 5% ethanol and 95% Liposyn II 20%.

HT29 = experiment: MTT cytotoxicity (IC50), HT29; assay type: cell-based; details: Homo sapiens, HT-29, 72 h, read-out: IN Vitro IC50 (nm) HT29
Procedure: (§2) Compound 17932 was tested in four of these cell lines, while the remaining compounds were tested in all of these cell lines. All cell lines were maintained in RPMI-1640 tissue culture medium (TCM, supplemented with antibiotics and 10% fetal bovine serum) and cultured at 37° C. in humidified air containing 5% CO2. To assess the antiproliferative effects of the test compounds, 172 μL of tumor cell suspension (1.45×10^4 cells/ml) were added to each well of a 96-well plate and incubated for 24 h at 37° C. in 5% CO2 in air to allow cells to adhere. Seven 2-fold drug dilutions in TCM/DMSO were performed in triplicate in separate 96-well plates and 28 μL was transferred to the wells containing tumor cells (200 μL final volume/0.1% DMSO). Plates were incubated for 72 h and cell viability was determined by adding 50 μL of warm TCM containing 5 mg/mL MTT (3-[4,5-dimethylthiazol-2-yl]-2,5-diphenyltetrazolium bromide) to each well and incubating for 1 h at 37° C. Plates were processed and the absorbances of the resulting solutions were measured by a plate reader at 570 nm. […] (GraphPad Prism version 4.00 for Windows). Studies were conducted by Taxolog, Inc., Tallahassee, Fla.

OVCAR4 = experiment: MTT cytotoxicity (IC50), OVCAR4; assay type: cell-based; details: Homo sapiens, OVCAR-4, 72 h, read-out: IN Vitro IC50 (nm) OVCAR4
Procedure: as §2

DLD-1 = experiment: MTT cytotoxicity (IC50), DLD-1; assay type: cell-based; details: Homo sapiens
Procedure: as §2

[2] = test system: HT29 human tumor xenografts; experiment: HT29 xenograft study e210, oral and i.v. (Example 25); details: for CR (complete regression) / NTR NTRa/u / NTR NTRm / PR (partial regression) / TFS (tumor-free survivor) / TR (treatment-related death): n=6
From the text: as §1

PANC-1 = experiment: MTT cytotoxicity (IC50), PANC-1; assay type: cell-based; details: Homo sapiens, 72 h, read-out: IN Vitro IC50 (nm) Panc
Procedure: as §2

TK-10 = experiment: MTT cytotoxicity (IC50), TK-10; assay type: cell-based; details: Homo sapiens, 72 h, read-out: IN Vitro IC50 (nm) TK10
Procedure: as §2

A375 = experiment: MTT cytotoxicity (IC50), A375; assay type: cell-based; details: Homo sapiens, A-375
Procedure: as §2

BxPC-3 cancer cell line = experiment: MTT cytotoxicity (IC50), BxPC-3 (Oncodesign); assay type: cell-based; details: Homo sapiens
Procedure: BxPC-3 cancer cell line (Source ATCC) and culture medium were purchased and provided by Oncodesign (France).
Tumor cells (5,000 cells per well) were plated in 96-well flat-bottom microtitration plates (Ref 167008, Batch 083310, Nunc, Dutscher, Brumath, France) and incubated at 37° C. for 24 hours before treatment in 100 μl of drug-free RPMI 1640 medium supplemented with 10% FBS. Tumor cell lines were incubated for 72 hours with 10 concentrations of both test substances and TXT (40 to 0.07 nM using ½ step dilutions). Experiments were repeated three times, each assay being issued from quadruplicate. Control cells were treated with the vehicle alone. At the end of treatments, the cytotoxic activity was evaluated by a MTT assay. These studies were conducted at Oncodesign, France.

[3] = test system: HT29 human tumor xenografts; experiment: HT29 xenograft study e139 (Example 23); assay type: in vivo, nude mice
[4] = test system: human MX-1 breast carcinoma; experiment: MX1 xenograft study e219R1, i.v. single dose (Example 17); details: for CR (complete regression) / NTR (non-treatment-related death) / PR (partial regression) / TFS (tumor-free survivor) / TR (treatment-related death): n=5
SNB-19 = experiment: MTT cytotoxicity (IC50), SNB-19; assay type: cell-based; details: Homo sapiens, 72 h, read-out: IN Vitro IC50 (nm) SNB19
Procedure: as §2

OVCAR5 = experiment: MTT cytotoxicity (IC50), OVCAR5; assay type: cell-based; details: Homo sapiens, OVCAR-5, 72 h, read-out: IN Vitro IC50 (nm) OVCAR5
Procedure: as §2

SK-MEL-28 = experiment: MTT cytotoxicity (IC50), SK-MEL-28; assay type: cell-based; details: Homo sapiens, 72 h, read-out: IN Vitro IC50 (nm) ske-mel28
Procedure: as §2

Structure (SMILES): CC(=O)O[C@@]12CO[C@@H]1C[C@H](O)[C@@]1(C)C(=O)[C@H](OC(=O)C3CC3)C3=C(C)[C@@H](OC(=O)[C@H](O)[C@@H](NC(=O)OC4CCC4)c4cccs4)C[C@@](O)([C@@H](OC(=O)c4ccccc4)C12)C3(C)C (stereo partly shown) [Compound 18365]
- activity in the HT29 xenograft tumor model [1]: oral and IV activity
- IC50 (HT29): 500 pM
- IC50 (OVCAR4): 1100 pM
- IC50 (DLD-1; MTT, 72 h, read-out: IN Vitro IC50 (nm) DLD1): 1100 pM
- IC50 (DLD-1; Resistance MDR1+, read-out: DLD1 Colon (Table 4, quantity not named; IC50 values as Table 2)): 1100 pM
- % TGD ([2]; 25 mg/kg iv q4d × 4): 214.3%
- BW Nadir ([2]; 25 mg/kg iv q4d × 4): −7.6% (16)
- MTV (n), Day 60 ([2]; 25 mg/kg iv q4d × 4): 5.00 (6) mm^3
- Median TTE ([2]; 25 mg/kg iv q4d × 4): 60 days
- T-C ([2]; 25 mg/kg iv q4d × 4): 40.91 days
- CR (complete regression) ([2]; 25 mg/kg iv q4d × 4): 4
- NTR NTRa/u ([2]; 25 mg/kg iv q4d × 4): 0
- NTR NTRm ([2]; 25 mg/kg iv q4d × 4): 0
- PR (partial regression) ([2]; 25 mg/kg iv q4d × 4): 2
- TFS (tumor-free survivor) ([2]; 25 mg/kg iv q4d × 4): 4
- TR (treatment-related death) ([2]; 25 mg/kg iv q4d × 4): 0
- % TGD ([2]; 50 mg/kg po q4d × 4): 214.3%
- BW Nadir ([2]; 50 mg/kg po q4d × 4): −7.6% (16)
- MTV (n), Day 60 ([2]; 50 mg/kg po q4d × 4): 8.75 (6) mm^3
- Median TTE ([2]; 50 mg/kg po q4d × 4): 60 days
- T-C ([2]; 50 mg/kg po q4d × 4): 40.91 days
- CR (complete regression) ([2]; 50 mg/kg po q4d × 4): 4
- NTR NTRa/u ([2]; 50 mg/kg po q4d × 4): 0
- NTR NTRm ([2]; 50 mg/kg po q4d × 4): 0
- PR (partial regression) ([2]; 50 mg/kg po q4d × 4): 2
- TFS (tumor-free survivor) ([2]; 50 mg/kg po q4d × 4): 3
- TR (treatment-related death) ([2]; 50 mg/kg po q4d × 4): 0
- activity in the HT29 xenograft tumor model ([2]; every four day schedule for four doses): oral and IV activity
- IC50 (PANC-1): 1200 pM
- IC50 (TK-10): 500 pM
- IC50 (A375; MTT, 72 h, read-out: IN Vitro IC50 (nm) A375): 600 pM
- IC50 (A375; Resistance MRP9, read-out: A375 Melanoma (Table 4, quantity not named; IC50 values as Table 2)): 600 pM
- IC50 (BxPC-3 cancer cell line; BXPC-3, 72 h, Exp 1, MTT, 72 hours, read-out: IC50 (nM) BxPC-3): 0.79 nM
- IC50 (BxPC-3 cancer cell line; BXPC-3, 72 h, Exp 2, MTT, 72 hours, read-out: IC50 (nM) BxPC-3): 1.07 nM
- IC50 (BxPC-3 cancer cell line; BXPC-3, 72 h, Exp 3, MTT, 72 hours, read-out: IC50 (nM) BxPC-3): 0.99 nM
- IC50 (BxPC-3 cancer cell line; BXPC-3, mean of 3 experiments, read-out: IC50 Mean ± SD (nM) BxPC-3): 0.95 ± 0.14 nM
- 61-day survivors ([3]; 25 mg/kg i.v. q4d×4, six mice): five
- CR responses ([3]; 25 mg/kg i.v. q4d×4, six mice): 2
- PR responses ([3]; 25 mg/kg i.v. q4d×4, six mice): 4
- Day 51 mm^3 (tumor size) ([3]; 25 mg/kg iv q4d × 4): 112.8 mm^3
- Day 54 mm^3 (tumor size) ([3]; 25 mg/kg iv q4d × 4): 124.7 mm^3
- Max. BW Loss %; Day ([3]; 25 mg/kg iv q4d × 4): −17.1%; Day 16
- Number of Death NTR ([3]; 25 mg/kg iv q4d × 4, N=6): 0
- Number of Death TR ([3]; 25 mg/kg iv q4d × 4, N=6): 1
- % TGD ([4]; 7.5 mg/kg iv qd × 1): 12.92%
- BW Nadir ([4]; 7.5 mg/kg iv qd × 1): −3.8% (4)
- Median TTE ([4]; 7.5 mg/kg iv qd × 1): 36.29 days
- T-C ([4]; 7.5 mg/kg iv qd × 1): 4.15 days
- activity (statistical significance) ([4]; 7.5 mg/kg iv qd × 1): non-significant activity
- CR (complete regression) ([4]; 7.5 mg/kg iv qd × 1): 0
- NTR (non-treatment-related death) ([4]; 7.5 mg/kg iv qd × 1): 0
- PR (partial regression) ([4]; 7.5 mg/kg iv qd × 1): 0
- TFS (tumor-free survivor) ([4]; 7.5 mg/kg iv qd × 1): 0
- TR (treatment-related death) ([4]; 7.5 mg/kg iv qd × 1): 0
- % TGD ([4]; 15 mg/kg iv qd × 1): 76.26%
- BW Nadir ([4]; 15 mg/kg iv qd × 1): −6.8% (5)
- MTV (n), Day 60 ([4]; 15 mg/kg iv qd × 1): 1098.50 (1) mm^3
- Median TTE ([4]; 15 mg/kg iv qd × 1): 56.65 days
- T-C ([4]; 15 mg/kg iv qd × 1): 24.51 days
- maximum group mean BW loss ([4]; 15 mg/kg iv qd × 1): 6.8%
- CR (complete regression) ([4]; 15 mg/kg iv qd × 1): 2
- NTR (non-treatment-related death) ([4]; 15 mg/kg iv qd × 1): 0
- PR (partial regression) ([4]; 15 mg/kg iv qd × 1): 1
- TR (treatment-related death) ([4]; 15 mg/kg iv qd × 1): 0
- % TGD ([4]; 30 mg/kg iv qd × 1): 89.79%
- BW Nadir ([4]; 30 mg/kg iv qd × 1): −16.0% (5)
- MTV (n), Day 60 ([4]; 30 mg/kg iv qd × 1): 0.00 (5) mm^3
- Median TTE ([4]; 30 mg/kg iv qd × 1): 61 days
- T-C ([4]; 30 mg/kg iv qd × 1): 28.86 days
- maximum group mean BW loss ([4]; 30 mg/kg iv qd × 1): 16%
- CR (complete regression) ([4]; 30 mg/kg iv qd × 1): 5
- NTR (non-treatment-related death) ([4]; 30 mg/kg iv qd × 1): 0
- PR (partial regression) ([4]; 30 mg/kg iv qd × 1): 0
- TFS (tumor-free survivor) ([4]; 30 mg/kg iv qd × 1): 5
- TR (treatment-related death) ([4]; 30 mg/kg iv qd × 1): 0
- minimal effective dose ([4]; iv qd × 1, lowest dose with statistically significant results and at least one D61 survivor or regression): 15 mg/kg
- IC50 (SNB-19): 1100 pM
- IC50 (OVCAR5): 300 pM
- IC50 (SK-MEL-28): 900 pM
